Source: patent publication US6552196B2, “Quinolone carboxylic acid derivatives” (Dong Wha Pharmaceutical Industrial Co., Ltd., priority 1997, dated 2003)

Experiments:
Assay type in all cases: cell-based
[1] = tested on: Enterobacter clocae 1321E; test: In vitro antibacterial activity (MIC), agar dilution; settings: 2-fold agar dilution, Muller-Hinton agar, 18 hours at 37° C., read-out: minimum inhibitory concentration (MIC)
Protocol: (§1) 10^7 cfu/ml of bacteria were inoculated and cultured for 18 hours at 37° C. and then the antibacterial activities were measured. For the methicillin resistant strains the activities were measured after 48 hours of cultivation at 30° C. Hoechst Standard strains were used for the testings.

Enterobacter clocae P99 = test: as above; settings: 2-fold agar dilution, Muller-Hinton agar, 18 hours at 37° C., read-out: minimum inhibitory concentration (MIC)
Protocol: as §1

Esherichia coli 078 = test: as above; settings: 2-fold agar dilution, Muller-Hinton agar, 18 hours at 37° C., read-out: minimum inhibitory concentration (MIC)
Protocol: as §1

Esherichia coli 1507E = test: as above; settings: 2-fold agar dilution, Muller-Hinton agar, 18 hours at 37° C., read-out: minimum inhibitory concentration (MIC)
Protocol: as §1

Esherichia coli DC0 = test: as above; settings: 2-fold agar dilution, Muller-Hinton agar, 18 hours at 37° C., read-out: minimum inhibitory concentration (MIC)
Protocol: as §1

Esherichia coli TEM = test: as above; settings: 2-fold agar dilution, Muller-Hinton agar, 18 hours at 37° C., read-out: minimum inhibitory concentration (MIC)
Protocol: as §1

[2] = tested on: Klebsiella aerogenes 1522E; test: as above; settings: 2-fold agar dilution, Muller-Hinton agar, 18 hours at 37° C., read-out: minimum inhibitory concentration (MIC)
Protocol: as §1

Klebsiella oxytoca 1082E = test: as above; settings: 2-fold agar dilution, Muller-Hinton agar, 18 hours at 37° C., read-out: minimum inhibitory concentration (MIC)
Protocol: as §1

[3] = tested on: Pseudomonas aeruginosa 1592E; test: as above; settings: 2-fold agar dilution, Muller-Hinton agar, 18 hours at 37° C., read-out: minimum inhibitory concentration (MIC)
Protocol: as §1

[4] = tested on: Pseudomonas aeruginosa 1771M; test: as above; settings: Pseudomonas aeruginosa, 1771M, 18 h, read-out: minimum inhibitory concentration (MIC)
Protocol: as §1

[5] = tested on: Pseudomonas aeruginosa 1771; test: as above; settings: 2-fold agar dilution, Muller-Hinton agar, 18 hours at 37° C., read-out: minimum inhibitory concentration (MIC)
Protocol: as §1

[6] = tested on: Pseudomonas aeruginosa 9027; test: as above; settings: 2-fold agar dilution, Muller-Hinton agar, 18 hours at 37° C., read-out: minimum inhibitory concentration (MIC)
Protocol: as §1

Salmonella typhimurium = test: as above; settings: Salmonella enterica, 2-fold agar dilution, Muller-Hinton agar, 18 hours at 37° C., read-out: minimum inhibitory concentration (MIC)
Protocol: as §1

[7] = tested on: Staphylococcus aureus 285; test: as above; settings: 2-fold agar dilution, Muller-Hinton agar, 18 hours at 37° C., read-out: minimum inhibitory concentration (MIC)
Protocol: as §1

[8] = tested on: Staphylococcus aureus 503; test: as above; settings: 2-fold agar dilution, Muller-Hinton agar, 18 hours at 37° C., read-out: minimum inhibitory concentration (MIC)
Protocol: as §1

[9] = tested on: Staphylococcus aureus SG511; test: as above; settings: 2-fold agar dilution, Muller-Hinton agar, 18 hours at 37° C., read-out: minimum inhibitory concentration (MIC)
Protocol: as §1

[10] = tested on: Streptococcus faecium MD 8b; test: as above; settings: Enterococcus faecium, MD8B, 2-fold agar dilution, Muller-Hinton agar, 18 hours at 37° C., read-out: minimum inhibitory concentration (MIC)
Protocol: as §1

[11] = tested on: Streptococcus pyogens 308A; test: as above; settings: 2-fold agar dilution, Muller-Hinton agar, 18 hours at 37° C., read-out: minimum inhibitory concentration (MIC)
Protocol: as §1

[12] = tested on: Streptococcus pyogens 77A; test: as above; settings: 2-fold agar dilution, Muller-Hinton agar, 18 hours at 37° C., read-out: minimum inhibitory concentration (MIC)
Protocol: as §1

[13] = tested on: Staphylococcus aureus 121E; test: In vitro antibacterial activity against resistant strains (MIC); settings: resistant strain Staphylococcus aureus 121E; 2-fold agar dilution; methicillin resistant strains 48 hours at 30° C.; read-out: minimum inhibitory concentration (MIC)
Protocol: as §1

[14] = tested on: Staphylococcus aureus 179; test: as above; settings: resistant strain Staphylococcus aureus 179; 2-fold agar dilution; methicillin resistant strains 48 hours at 30° C.; read-out: minimum inhibitory concentration (MIC)
Protocol: as §1

[15] = tested on: Staphylococcus aureus 208E; test: as above; settings: resistant strain Staphylococcus aureus 208E; 2-fold agar dilution; methicillin resistant strains 48 hours at 30° C.; read-out: minimum inhibitory concentration (MIC)
Protocol: as §1

[16] = tested on: Staphylococcus aureus 241; test: as above; settings: resistant strain Staphylococcus aureus 241; 2-fold agar dilution; methicillin resistant strains 48 hours at 30° C.; read-out: minimum inhibitory concentration (MIC)
Protocol: as §1

[17] = tested on: Staphylococcus aureus 256E; test: as above; settings: resistant strain Staphylococcus aureus 256E; 2-fold agar dilution; methicillin resistant strains 48 hours at 30° C.; read-out: minimum inhibitory concentration (MIC)
Protocol: as §1

[18] = tested on: Staphylococcus aureus 293; test: as above; settings: resistant strain Staphylococcus aureus 293; 2-fold agar dilution; methicillin resistant strains 48 hours at 30° C.; read-out: minimum inhibitory concentration (MIC)
Protocol: as §1

[19] = tested on: Staphylococcus aureus 303; test: as above; settings: resistant strain Staphylococcus aureus 303; 2-fold agar dilution; methicillin resistant strains 48 hours at 30° C.; read-out: minimum inhibitory concentration (MIC)
Protocol: as §1

[20] = tested on: Staphylococcus aureus 690E; test: as above; settings: resistant strain Staphylococcus aureus 690E; 2-fold agar dilution; methicillin resistant strains 48 hours at 30° C.; read-out: minimum inhibitory concentration (MIC)
Protocol: as §1

[21] = tested on: Staphylococcus aureus 692E; test: as above; settings: resistant strain Staphylococcus aureus 692E; 2-fold agar dilution; methicillin resistant strains 48 hours at 30° C.; read-out: minimum inhibitory concentration (MIC)
Protocol: as §1

[22] = tested on: Staphylococcus aureus 693E; test: as above; settings: resistant strain Staphylococcus aureus 693E; 2-fold agar dilution; methicillin resistant strains 48 hours at 30° C.; read-out: minimum inhibitory concentration (MIC)
Protocol: as §1

[23] = tested on: Staphylococcus aureus 694E; test: as above; settings: resistant strain Staphylococcus aureus 694E; 2-fold agar dilution; methicillin resistant strains 48 hours at 30° C.; read-out: minimum inhibitory concentration (MIC)
Protocol: as §1

[24] = tested on: Staphylococcus aureus 695E; test: as above; settings: resistant strain Staphylococcus aureus 695E; 2-fold agar dilution; methicillin resistant strains 48 hours at 30° C.; read-out: minimum inhibitory concentration (MIC)
Protocol: as §1

[25] = tested on: Staphylococcus aureus 697E; test: as above; settings: resistant strain Staphylococcus aureus 697E; 2-fold agar dilution; methicillin resistant strains 48 hours at 30° C.; read-out: minimum inhibitory concentration (MIC)
Protocol: as §1

[26] = tested on: Staphylococcus aureus 701E; test: as above; settings: resistant strain Staphylococcus aureus 701E; 2-fold agar dilution; methicillin resistant strains 48 hours at 30° C.; read-out: minimum inhibitory concentration (MIC)
Protocol: as §1

[27] = tested on: Staphylococcus aureus 703E; test: as above; settings: resistant strain Staphylococcus aureus 703E; 2-fold agar dilution; methicillin resistant strains 48 hours at 30° C.; read-out: minimum inhibitory concentration (MIC)
Protocol: as §1

[28] = tested on: Staphylococcus aureus 8236; test: as above; settings: resistant strain Staphylococcus aureus 8236; 2-fold agar dilution; methicillin resistant strains 48 hours at 30° C.; read-out: minimum inhibitory concentration (MIC)
Protocol: as §1

[29] = tested on: Staphylococcus aureus 88E; test: as above; settings: resistant strain Staphylococcus aureus 88E; 2-fold agar dilution; methicillin resistant strains 48 hours at 30° C.; read-out: minimum inhibitory concentration (MIC)
Protocol: as §1

[30] = tested on: Staphylococcus epidermidis 178; test: as above; settings: resistant strain Staphylococcus epidermidis 178; 2-fold agar dilution; methicillin resistant strains 48 hours at 30° C.; read-out: minimum inhibitory concentration (MIC)
Protocol: as §1

[31] = tested on: Staphylococcus epidermidis 291; test: as above; settings: resistant strain Staphylococcus epidermidis 291; 2-fold agar dilution; methicillin resistant strains 48 hours at 30° C.; read-out: minimum inhibitory concentration (MIC)
Protocol: as §1

CCON=C1CN(c2c(F)c(N)c3c(=O)c(C(=O)O)cn(C4CC4)c3c2F)CC12CNC2.CS(=O)(=O)O [Example 9, 1-Cyclopropyl-5-amino-6,8-difluoro-7-[8-(ethoxyimino)-2,6-diazaspiro[3,4]oct-6-yl]-4-oxo-1,4-dihydro-3-quinolinecarboxylic acid methanesulfonate]
MIC [1]: 0.007 µg/mL
MIC (Enterobacter clocae P99): 0.007 µg/mL
MIC (Esherichia coli 078): 0.004 µg/mL
MIC (Esherichia coli 1507E): 0.013 µg/mL
MIC (Esherichia coli DC0): 0.195 µg/mL
MIC (Esherichia coli TEM): 0.013 µg/mL
MIC [2]: 0.049 µg/mL
MIC (Klebsiella oxytoca 1082E): < 0.002 µg/mL
MIC [3]: 0.781 µg/mL
MIC [4]: 0.391 µg/mL
MIC [5]: 0.781 µg/mL
MIC [6]: 0.781 µg/mL
MIC (Salmonella typhimurium): 0.007 µg/mL
MIC [7]: 0.007 µg/mL
MIC [8]: < 0.002 µg/mL
MIC [9]: < 0.002 µg/mL
MIC [10]: 0.049 µg/mL
MIC [11]: 0.025 µg/mL
MIC [12]: 0.004 µg/mL
MIC [13]: 0.013 µg/mL
MIC [14]: 0.098 µg/mL
MIC [15]: 0.013 µg/mL
MIC [16]: 0.098 µg/mL
MIC [17]: 0.013 µg/mL
MIC [18]: 0.098 µg/mL
MIC [19]: 0.098 µg/mL
MIC [20]: 0.007 µg/mL
MIC [21]: 0.007 µg/mL
MIC [22]: 0.013 µg/mL
MIC [23]: 0.013 µg/mL
MIC [24]: 0.013 µg/mL
MIC [25]: 0.004 µg/mL
MIC [26]: 0.013 µg/mL
MIC [27]: 0.013 µg/mL
MIC [28]: 0.098 µg/mL
MIC [29]: 0.007 µg/mL
MIC [30]: 0.391 µg/mL
MIC [31]: 0.391 µg/mL
